Data: patent publication US8846669B2, “Oxazolidinone derivative and medical composition containing same” (Legochem Biosciences, Inc., priority 2011, dated 2014)
Converted amounts (≈) assume the structure as drawn. Where two headings read alike, the source gives them in different places.

Assays:
Assay in all cases: In vitro antibacterial activity, broth microdilution MIC90
Format in all cases: cell-based
[1] = system: Vancomycin Resistant Enterococcus faecium
Procedure: (§1) MIC90 was measured by broth microdilution method based on CLSI standards [reference: Clinical and Laboratory Standards Institute Document. (2000) Methods for Dilution Antimicrobial Susceptibility Test for Bacteria that Grow Aerobically-Fifth Edition: M7-A5. CLSI, Villanova, Pa.].
(§2) Activities of 12 strains including Staphylococcus aureus, Methicillin Resistant Staphylococcus aureus, Staphylococcus epidermidis, Methicillin Resistant Staphylococcus epidermidis, Enterococcus faecalis, Vancomycin Resistant Enterococcus faecalis, Linezolid and Vancomycin Resistant Enterococcus faecalis, Enterococcus faecium, Vancomycin Resistant Enterococcus faecium, Linezolid and Vancomycin Resistant Enterococcus faecium, and Moraxella catarrhalis, were measured, and results are shown in Table 1 below.
(§3) The final concentration of test material in the antibacterial test was from 0.063 μg/mL (minimum) to 128 μg/mL (maximum), and the final concentration of DMSO used as an excipient was 2.5% (V/V). Linezolid represented by Formula B below (manufactured by Pfizer) was used as a control and bacterial activity thereof was compared with those of the test materials.

[2] = system: Methicillin Resistant Staphylococcus aureus
Procedure: as §1, §2, §3

Moraxella catarrhalis = system: Moraxella catarrhalis
Procedure: as §1, §2, §3

[3] = system: Linezolid and Vancomycin Resistant Enterococcus faecium (strain 11)
Procedure: as §1, §2, §3

Enterococcus faecium = system: Enterococcus faecium
Procedure: as §1, §2, §3

[4] = system: Vancomycin Resistant Enterococcus faecalis
Procedure: as §1, §2, §3

[5] = system: Linezolid and Vancomycin Resistant Enterococcus faecium (strain 10)
Procedure: as §1, §2, §3

[6] = system: Linezolid and Vancomycin Resistant Enterococcus faecalis
Procedure: as §1, §2, §3

Enterococcus faecalis = system: Enterococcus faecalis
Procedure: as §1, §2, §3

Staphylococcus aureus = system: Staphylococcus aureus
Procedure: as §1, §2, §3

[7] = system: Staphylococcus epidermidis
Procedure: as §1, §2, §3

[8] = system: Methicillin Resistant Staphylococcus epidermidis
Procedure: as §1, §2, §3

| SMILES | MIC90 ([1]; Enterococcus faecium) [µg/mL] | MIC90 ([2]; Staphylococcus aureus) [µg/mL] | MIC90 (Moraxella catarrhalis; Moraxella catarrhalis) [µg/mL] | MIC90 ([3]; Enterococcus faecium) [µg/mL] | MIC90 (Enterococcus faecium; Enterococcus faecium) [µg/mL] | MIC90 ([4]; Enterococcus faecalis) [µg/mL] | MIC90 ([5]; Enterococcus faecium) [µg/mL] | MIC90 ([6]; Enterococcus faecalis) [µg/mL] | MIC90 (Enterococcus faecalis; Enterococcus faecalis) [µg/mL] | MIC90 (Staphylococcus aureus; Staphylococcus aureus) [µg/mL] | MIC90 ([7]; Staphylococcus epidermidis) [µg/mL] | MIC90 ([8]; Staphylococcus epidermidis) [µg/mL] | other results |
| --- | --- | --- | --- | --- | --- | --- | --- | --- | --- | --- | --- | --- | --- |
| Cl.O=C1O[C@@H](CNc2ccon2)CN1c1ccc(-c2ccc(N3C=NNCC3)nc2)c(F)c1 [Compound 39] | – | – | – | – | – | – | – | – | – | – | – | – | MIC90 ([1]; strain 9, E. faecium VanA): 1 µg/mL; MIC90 ([2]; strain 2, S. aureus MR): 0.5 µg/mL; MIC90 (Moraxella catarrhalis; strain 12, M. catarrhalis): 2 µg/mL; MIC90 ([3]; strain 11, E. faecium VanA LR): 4 µg/mL; MIC90 (Enterococcus faecium; strain 8, E. faecium): 0.25 µg/mL; MIC90 ([4]; strain 6, E. faecalis VanA): 1 µg/mL; MIC90 ([5]; strain 10, E. faecium VanA LR): 4 µg/mL; MIC90 ([6]; strain 7, E. faecalis VanA LR): 4 µg/mL; MIC90 (Enterococcus faecalis; strain 5, E. faecalis): 0.5 µg/mL; MIC90 (Staphylococcus aureus; strain 1, S. aureus): 0.25 µg/mL; MIC90 ([7]; strain 3, S. epidermidis): 1 µg/mL; MIC90 ([8]; strain 4, S. epidermidis MR): 2 µg/mL |
| CCN1CCN(c2ccc(-c3ccc(N4C[C@H](CO)OC4=O)cc3F)cn2)C=N1 [Compound 29] | 8 (≈ 20 µM) | 8 (≈ 20 µM) | 32 (≈ 80.1 µM) | 64 (≈ 160 µM) | 8 (≈ 20 µM) | 16 (≈ 40.1 µM) | 64 (≈ 160 µM) | 64 (≈ 160 µM) | 16 (≈ 40.1 µM) | 8 (≈ 20 µM) | 4 (≈ 10 µM) | 8 (≈ 20 µM) | – |
| O=C(CO)N1CCN(c2ccc(-c3ccc(N4C[C@H](Cn5ccnn5)OC4=O)cc3F)cn2)C=N1 [Compound 32] | 0.5 (≈ 1.04 µM) | 1 (≈ 2.08 µM) | 2 (≈ 4.16 µM) | 2 (≈ 4.16 µM) | 0.25 (≈ 0.52 µM) | 0.5 (≈ 1.04 µM) | 2 (≈ 4.16 µM) | 2 (≈ 4.16 µM) | 0.5 (≈ 1.04 µM) | 0.25 (≈ 0.52 µM) | 0.25 (≈ 0.52 µM) | 1 (≈ 2.08 µM) | – |
| CC(=O)NC[C@H]1CN(c2ccc(-c3ccc(N4C=NN(C(=O)CO)CC4)nc3)c(F)c2)C(=O)O1 [Compound 11] | 0.125 (≈ 0.266 µM) | 0.25 (≈ 0.531 µM) | 1 (≈ 2.13 µM) | 1 (≈ 2.13 µM) | 0.063 (≈ 0.134 µM) | 0.125 (≈ 0.266 µM) | 0.5 (≈ 1.06 µM) | 0.5 (≈ 1.06 µM) | 0.125 (≈ 0.266 µM) | 0.063 (≈ 0.134 µM) | 0.063 (≈ 0.134 µM) | 0.25 (≈ 0.531 µM) | antibacterial activity against linezolid-resistant bacteria (in words) ([6]; Enterococcus faecalis and Enterococcus faecium which are resistant to linezolid): very high antibacterial activity |
| CC(=O)NC[C@H]1CN(c2ccc(-c3ccc(N4C=NN(CCO)CC4)nc3)c(F)c2)C(=O)O1 [Compound 6] | – | – | – | – | – | – | – | – | – | – | – | – | MIC90 ([1]; Enterococcus faecium, strain 9, E. faecium VanA, read-out: MIC90): 0.5 µg/mL (≈ 1.1 µM); MIC90 ([2]; Staphylococcus aureus, strain 2, S. aureus MR, read-out: MIC90): 1 µg/mL (≈ 2.19 µM); MIC90 ([3]; Enterococcus faecium, strain 11, E. faecium VanA LR, read-out: MIC90): 2 µg/mL (≈ 4.38 µM); MIC90 (Enterococcus faecium; Enterococcus faecium, strain 8, E. faecium, read-out: MIC90): 0.5 µg/mL (≈ 1.1 µM); MIC90 ([4]; Enterococcus faecalis, strain 6, E. faecalis VanA, read-out: MIC90): 0.5 µg/mL (≈ 1.1 µM); MIC90 ([5]; Enterococcus faecium, strain 10, E. faecium VanA LR, read-out: MIC90): 2 µg/mL (≈ 4.38 µM); MIC90 ([6]; Enterococcus faecalis, strain 7, E. faecalis VanA LR, read-out: MIC90): 2 µg/mL (≈ 4.38 µM); MIC90 (Enterococcus faecalis; Enterococcus faecalis, strain 5, E. faecalis, read-out: MIC90): 0.5 µg/mL (≈ 1.1 µM); MIC90 (Staphylococcus aureus; Staphylococcus aureus, strain 1, S. aureus, read-out: MIC90): 0.5 µg/mL (≈ 1.1 µM); MIC90 ([7]; Staphylococcus epidermidis, strain 3, S. epidermidis, read-out: MIC90): 0.5 µg/mL (≈ 1.1 µM); MIC90 ([8]; Staphylococcus epidermidis, strain 4, S. epidermidis MR, read-out: MIC90): 1 µg/mL (≈ 2.19 µM) |
| CC(=O)NC[C@H]1CN(c2ccc(-c3ccc(N4C=NN(CC(=O)O)CC4)nc3)c(F)c2)C(=O)O1 [Compound 10] | 2 (≈ 4.25 µM) | 2 (≈ 4.25 µM) | – | 8 (≈ 17 µM) | 1 (≈ 2.13 µM) | 2 (≈ 4.25 µM) | 8 (≈ 17 µM) | 8 (≈ 17 µM) | 1 (≈ 2.13 µM) | 1 (≈ 2.13 µM) | 1 (≈ 2.13 µM) | 2 (≈ 4.25 µM) | – |
| CC(=O)NC[C@H]1CN(c2ccc(-c3ccc(N4C=NN(CC(=O)OC(C)(C)C)CC4)nc3)c(F)c2)C(=O)O1 [Compound 9] | 2 (≈ 3.8 µM) | 4 (≈ 7.6 µM) | – | 8 (≈ 15.2 µM) | 2 (≈ 3.8 µM) | 2 (≈ 3.8 µM) | 8 (≈ 15.2 µM) | 8 (≈ 15.2 µM) | 1 (≈ 1.9 µM) | 1 (≈ 1.9 µM) | 1 (≈ 1.9 µM) | 4 (≈ 7.6 µM) | – |
| C#CCN1C=NN(c2ccc(-c3ccc(N4C[C@H](CNC(C)=O)OC4=O)cc3F)cn2)CC1 [Compound 55] | 2 (≈ 4.44 µM) | 4 (≈ 8.88 µM) | – | 4 (≈ 8.88 µM) | 2 (≈ 4.44 µM) | 2 (≈ 4.44 µM) | 4 (≈ 8.88 µM) | 4 (≈ 8.88 µM) | 1 (≈ 2.22 µM) | 1 (≈ 2.22 µM) | 2 (≈ 4.44 µM) | 4 (≈ 8.88 µM) | – |
| CCOC(=O)CN1CCN(c2ccc(-c3ccc(N4C[C@H](CNC(C)=O)OC4=O)cc3F)cn2)C=N1 [Compound 5] | 0.5 (≈ 1 µM) | 1 (≈ 2.01 µM) | – | 2 (≈ 4.01 µM) | 0.5 (≈ 1 µM) | 0.5 (≈ 1 µM) | 2 (≈ 4.01 µM) | 2 (≈ 4.01 µM) | 0.5 (≈ 1 µM) | 0.5 (≈ 1 µM) | 0.5 (≈ 1 µM) | 1 (≈ 2.01 µM) | – |
